Experimental findings from ChEMBL document CHEMBL1201862, “PubChem BioAssay data set” (2004) are described below.

Some test systems named below: RPMI-8226; MCF7; RXF 393; K562; A549; OVCAR-3; HCT-15; NCI-H23; SK-OV-3; KM12; NCI-H226; SK-MEL-5; MOLT-4; SK-MEL-2; M14; SF-268; SNB-75; A498; HT-29; UACC-62.
Common to all, as to experiment: NCI-60 cell line screen, 48 h

Structures are written as SMILES.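 Assay format: 96-well plates, 48-hour exposure. Abbreviation: GI50, concentration required for 50% inhibition of growth.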 Calls of active or inactive are those of the source. Rule as the data show it: active = GI50 up to about 1.1 µM and inactive = higher.

Consider `Cc1c2cc[n+](C)cc2c(C)c2c1[nH]c1ccc(O)cc12` [ELLIPTINIUM ACETATE], for which the GI50 with RPMI-8226 is 36.7 µM (inactive); in the test with MCF7, 8.75 µM (inactive); in the test on RXF 393, 62.5 µM (inactive); in the test on K562, 16.9 µM (inactive); with A549, 0.447 µM (active); in the test on OVCAR-3 it was 23.9 µM (inactive). Besides, the GI50 is 50.4 µM with HCT-15; 8.91 µM (inactive) with NCI-H23; 46.5 µM (inactive) with SK-OV-3; 2.53 µM (inactive) with KM12; 1.12 µM (inactive) with NCI-H226; 7.89 µM (inactive) in the test on SK-MEL-5. The GI50 in the test on MOLT-4 was 0.241 µM (active); in the test with SK-MEL-2, 66.2 µM (inactive); in the test on M14, 1.08 µM (active); with SF-268, 0.369 µM (active); in the test on SNB-75 it was 2.36 µM (inactive); in the test on A498, 52.5 µM (inactive). Further, the GI50 is 62.4 µM (inactive) in the test with HT-29 and 15.3 µM (inactive) in the test on UACC-62.
